According to patent publication US12673956B2, “Oxadiazolyl dihydropyrano[2,3-b]pyridine inhibitors of HIPK2 for treating kidney fibrosis” (ICAHN SCHOOL OF MEDICINE AT MOUNT SINAI, priority 2021, dated 2026):

test system: TGF/SMAD Signaling Pathway SBE Reporter—HEK293 Cell Line; assay: Luciferase screen, TGF/SMAD SBE reporter HEK293 cells stimulated with TGFβ; format: cell-based; conditions: Homo sapiens, HEK293, 18 h, read-out: Luciferase IC50 nM
Method: For the data in Table 1, the Bight-Glo™ Luciferase Assay System from Promega was used with TGF/SMAD Signaling Pathway SBE Reporter—HEK293 Cell Line from BPSbioscience. On day 1 SBE reporter-HEK293 cells were seeded at a density of 25,000 cells per well into a white clear-bottom 96-well microplate in 100 μl of growth medium without geneticin. The plate was incubated at 37° C. in a CO2 incubator for 24 hrs. The wells were renewed with 60 μL assay medium and treated with test compounds by adding 5 μL of compounds in medium. The concentration of test compound in medium is adjusted so that 5 μL will provide the desired molarity of the solution. For example, if the desired test concentration is 30 µM, then 5 μL of […] compound is added. After 4 hours, TGFβ was added to 10 ng/mL. The plate was incubated at 37° C. in a CO2 incubator overnight (18 hours). One hour prior to assay all medium was replaced. The luciferase assay was run using ONE-Step™ Luciferase Assay System by adding 100 al of ONE-Step™ Luciferase reagent per well, rocking at room temperature for ~15 to 30 minutes and measuring luminescence using a luminometer. The signals were normalized to percentage inhibition, with non-TGF treated cells as 100% inhibition, and the data were processed by Graphpad Prism.

SMILES	IC50 [nM]
CC1(C)Oc2ncc(-c3nc(-c4ccc(Cl)c(Cl)c4)no3)cc2C[C@@H]1O [Example 22, (S)-6-(3-(3,4-dichlorophenyl)-1,2,4-oxadiazol-5-yl)-2,2-dimethyl-3,4-dihydro-2H-pyrano[2,3-b]pyridin-3-ol]	43
CC1(C)Oc2ncc(-c3nc(-c4ncco4)no3)cc2C[C@H]1O [Example 33, (3R)-2,2-dimethyl-6-(3-oxazol-2-yl-1,2,4-oxadiazol-5-yl)-3,4-dihydropyrano[2,3-b]pyridin-3-ol]	76
CC1(C)Oc2ncc(-c3nc(-c4ncco4)no3)cc2C[C@@H]1O [Example 32, (S)-2,2-dimethyl-6-(3-(oxazol-2-yl)-1,2,4-oxadiazol-5-yl)-3,4-dihydro-2H-pyrano[2,3-b]pyridin-3-ol]	65
Cc1ccc(-c2noc(-c3cnc4c(c3)C[C@H](O)C(C)(C)O4)n2)cc1 [Example 21, (S)-2,2-dimethyl-6-(3-p-tolyl-1,2,4-oxadiazol-5-yl)-3,4-dihydro-2H-pyrano[2,3-b]pyridin-3-ol]	17
CC1(C)Oc2ncc(-c3nc(-c4ccc(Cl)c(F)c4)no3)cc2CC1O (stereo in doubt) [Example 35, (S)-6-(3-(4-chloro-3-fluorophenyl)-1,2,4-oxadiazol-5-yl)-2,2-dimethyl-3,4-dihydro-2H-pyrano[2,3-b]pyridin-3-ol]	22
CC1(C)Oc2ncc(-c3nc(-c4nc(Cl)cs4)no3)cc2C[C@@H]1O [Example 28, (S)-6-(3-(4-chlorothiazol-2-yl)-1,2,4-oxadiazol-5-yl)-2,2-dimethyl-3,4-dihydro-2H-pyrano[2,3-b]pyridin-3-ol]	13
CC1(C)Oc2ncc(-c3nc(-c4ccc(Br)cc4)no3)cc2C[C@@H]1O [Example 7, (S)-6-(3-(4-bromophenyl)-1,2,4-oxadiazol-5-yl)-2,2-dimethyl-3,4-dihydro-2H-pyrano[2,3-b]pyridin-3-ol]	37
CC1(C)Oc2ncc(-c3nc(-c4ccc(Br)cc4)no3)cc2[C@@H](O)[C@@H]1O [Example 9, (3S,4R)-6-(3-(4-bromophenyl)-1,2,4-oxadiazol-5-yl)-2,2-dimethyl-3,4-dihydro-2H-pyrano[2,3-b]pyridine-3,4-diol]	2420
CC1(C)Oc2ncc(-c3nc(-c4ccc(Cl)c(F)c4)no3)cc2C[C@@H]1O [Example 34, (S)-6-(3-(4-chloro-3-fluorophenyl)-1,2,4-oxadiazol-5-yl)-2,2-dimethyl-3,4-dihydro-2H-pyrano[2,3-b]pyridin-3-ol]	39
CC1(C)Oc2ncc(-c3nc(-c4ccc(Br)cc4)no3)cc2C[C@H]1O [Example 6, (R)-6-(3-(4-bromophenyl)-1,2,4-oxadiazol-5-yl)-2,2-dimethyl-3,4-dihydro-2H-pyrano[2,3-b]pyridin-3-ol]	27
CCn1ccc(-c2noc(-c3cnc4c(c3)C[C@@H](O)C(C)(C)O4)n2)n1 [Example 29, (R)-6-(3-(1-ethyl-1H-pyrazol-3-yl)-1,2,4-oxadiazol-5-yl)-2,2-dimethyl-3,4-dihydro-2H-pyrano[2,3-b]pyridin-3-ol]	56
CC1(C)Oc2ncc(-c3nc(-c4ccc(Br)cc4)no3)cc2[C@H](O)[C@H]1O [Example 8, (3R,4S)-6-(3-(4-bromophenyl)-1,2,4-oxadiazol-5-yl)-2,2-dimethyl-3,4-dihydro-2H-pyrano[2,3-b]pyridine-3,4-diol]	11300

same assay, conditions: Homo sapiens; SBE reporter-HEK293 cells, TGFβ 10 ng/mL, 18 hours; read-out: Luciferase IC50

SMILES	IC50 [nM]
CC1(C)C[C@H](O)c2cc(-c3nc(-c4ccc(Br)cc4)no3)cnc2O1 (single isomer, unassigned) [Example 11]	57
CC1(C)Oc2ncc(-c3nc(-c4ccc(F)cc4)no3)cc2C[C@@H]1O [Example 20, (S)-6-(3-(4-fluorophenyl)-1,2,4-oxadiazol-5-yl)-2,2-dimethyl-3,4-dihydro-2H-pyrano[2,3-b]pyridin-3-ol]	223
CC1(C)Oc2ncc(-c3nc(-c4cccc(Cl)c4)no3)cc2C[C@H]1O [Example 31, (R)-6-(3-(3-chlorophenyl)-1,2,4-oxadiazol-5-yl)-2,2-dimethyl-3,4-dihydro-2H-pyrano[2,3-b]pyridin-3-ol]	152
CC1(C)Oc2ncc(-c3nc(-c4nccs4)no3)cc2CC1O (stereo in doubt) [Example 14, (R)-2,2-dimethyl-6-(3-(thiazol-2-yl)-1,2,4-oxadiazol-5-yl)-3,4-dihydro-2H-pyrano[2,3-b]pyridin-3-ol]	1370
CC1(C)Oc2ncc(-c3nc(-c4ncc(Cl)s4)no3)cc2C[C@@H]1O [Example 23, (S)-6-(3-(5-chlorothiazol-2-yl)-1,2,4-oxadiazol-5-yl)-2,2-dimethyl-3,4-dihydro-2H-pyrano[2,3-b]pyridin-3-ol]	242
C[C@@H]1CCc2cc(-c3nc(-c4ccc(Br)cc4)no3)cnc2O1 [Example 4, ethyl (R)-6-(3-(4-bromophenyl)-1,2,4-oxadiazol-5-yl)-2-methyl-3,4-dihydro-2H-pyrano[2,3-b]pyridine]	126
CC1(C)Oc2ncc(-c3nc(-c4nccs4)no3)cc2CC1O (stereo in doubt) [Example 16, (S)-2,2-dimethyl-6-(3-(thiazol-2-yl)-1,2,4-oxadiazol-5-yl)-3,4-dihydro-2H-pyrano[2,3-b]pyridin-3-ol]	1110
CO[C@H]1Cc2cc(-c3nc(-c4ccc(Cl)cc4)no3)cnc2OC1(C)C [Example 19, (S)-6-(3-(4-chlorophenyl)-1,2,4-oxadiazol-5-yl)-3-methoxy-2,2-dimethyl-3,4-dihydro-2H-pyrano[2,3-b]pyridine]	340
Cn1ccc(-c2noc(-c3cnc4c(c3)C[C@H](O)C(C)(C)O4)n2)n1 [Example 18, (S)-2,2-dimethyl-6-(3-(1-methyl-1H-pyrazol-3-yl)-1,2,4-oxadiazol-5-yl)-3,4-dihydro-2H-pyrano[2,3-b]pyridin-3-ol]	28
CC1(C)C[C@@H](O)c2cc(-c3nc(-c4ccc(Br)cc4)no3)cnc2O1 (single isomer, unassigned) [Example 10]	233
Cc1cnc(-c2noc(-c3cnc4c(c3)C[C@H](O)C(C)(C)O4)n2)s1 [Example 24, (S)-2,2-dimethyl-6-(3-(5-methylthiazol-2-yl)-1,2,4-oxadiazol-5-yl)-3,4-dihydro-2H-pyrano[2,3-b]pyridin-3-ol]	822
Cn1ccc(-c2noc(-c3cnc4c(c3)C[C@@H](O)C(C)(C)O4)n2)n1 [Example 17, (R)-2,2-dimethyl-6-(3-(1-methyl-1H-pyrazol-3-yl)-1,2,4-oxadiazol-5-yl)-3,4-dihydro-2H-pyrano[2,3-b]pyridin-3-ol]	18
Cc1cnc(-c2noc(-c3cnc4c(c3)C[C@@H](O)C(C)(C)O4)n2)s1 [Example 26, (R)-2,2-dimethyl-6-(3-(5-methylthiazol-2-yl)-1,2,4-oxadiazol-5-yl)-3,4-dihydro-2H-pyrano[2,3-b]pyridin-3-ol]	708
CC1(C)Oc2ncc(-c3nc(-c4cccc(F)c4)no3)cc2C[C@H]1O [Example 38, (R)-6-(3-(3-fluorophenyl)-1,2,4-oxadiazol-5-yl)-2,2-dimethyl-3,4-dihydro-2H-pyrano[2,3-b]pyridin-3-ol]	148
CC1(C)Oc2ncc(-c3nc(-c4cccc(Cl)c4)no3)cc2C[C@@H]1O [Example 30, (S)-6-(3-(3-chlorophenyl)-1,2,4-oxadiazol-5-yl)-2,2-dimethyl-3,4-dihydro-2H-pyrano[2,3-b]pyridin-3-ol]	136
